Data as given in ChEMBL document CHEMBL4177696, “Identification of a diverse synthetic abietane diterpenoid library and insight into the structure-activity relationships for antibacterial activity” (Bioorg Med Chem Lett, 2017).
Converted amounts (≈) assume the structure as drawn.

Legend:
[1] = Cytotoxicity against HFF measured after 72 hrs by MTT assay; assay type: cell-based; settings: human, HFF cells
Bacillus subtilis = test: Antibacterial activity against Bacillus subtilis measured after 24 hrs; assay type: functional
Pseudomonas fluorescens = test: Antibacterial activity against Pseudomonas fluorescens measured after 24 hrs; assay type: functional
Escherichia coli = test: Antibacterial activity against Escherichia coli measured after 24 hrs; assay type: functional
Staphylococcus aureus = test: Antibacterial activity against Staphylococcus aureus measured after 24 hrs; assay type: functional
[2] = Cytotoxicity against human HL-7702 cells measured after 72 hrs by MTT assay; assay type: cell-based; settings: HL-7702 (L02) cells

SMILES | MIC (Bacillus subtilis) [µg/mL] | MIC (Pseudomonas fluorescens) [µg/mL] | MIC (Escherichia coli) [µg/mL] | MIC (Staphylococcus aureus) [µg/mL] | CC50 at 72 h [1] [µg/mL] | CC50 at 72 h [2] [µg/mL]
COc1cccc2c1CC[C@H]1[C@H]3COC(=O)C3=CC[C@]21C | 6.3 (≈ 22.2 µM) | 6.3 (≈ 22.2 µM) | 3.1 (≈ 10.9 µM) | 6.3 (≈ 22.2 µM) | 25.2 (≈ 88.6 µM) | 9.9 (≈ 34.8 µM)
C=C1C(=O)CC[C@]2(C)c3cccc(OC)c3CC[C@@H]12 | 6.3 (≈ 24.6 µM) | 3.1 (≈ 12.1 µM) | 6.3 (≈ 24.6 µM) | 3.1 (≈ 12.1 µM) | 9.1 (≈ 35.5 µM) | 9.3 (≈ 36.3 µM)
COC(=O)[C@]1(C)CCC[C@]2(C)c3ccc(C(C)C)c(NC(=O)Cn4cc(-c5ccc(Br)cc5)nn4)c3CC[C@@H]12 | 12.5 (≈ 21.1 µM) | 6.3 (≈ 10.6 µM) | 25 (≈ 42.1 µM) | 25 (≈ 42.1 µM) | – | –
COC(=O)[C@]1(C)CCC[C@]2(C)c3ccc(C(C)C)c(NC(=O)Cn4cc(-c5cccc(OC)c5)nn4)c3CC[C@@H]12 | 75 (≈ 138 µM) | 50 (≈ 91.8 µM) | 75 (≈ 138 µM) | 50 (≈ 91.8 µM) | – | –
C=C1C(CO)=CC[C@]2(C)c3ccc(C(C)C)c(OC)c3CC[C@@H]12 | 100 (≈ 320 µM) | 75 (≈ 240 µM) | 100 (≈ 320 µM) | 75 (≈ 240 µM) | – | –
COC(=O)[C@]1(C)CCC[C@]2(C)c3ccc(C(C)C)c(NC(=O)Cn4cc(CCC#N)nn4)c3CC[C@@H]12 | 75 (≈ 153 µM) | 50 (≈ 102 µM) | 50 (≈ 102 µM) | 50 (≈ 102 µM) | – | –
COc1c(C(C)C)ccc2c1CC[C@H]1c3cocc3CC[C@]21C | 100 (≈ 322 µM) | 100 (≈ 322 µM) | 100 (≈ 322 µM) | 50 (≈ 161 µM) | – | –
COC(=O)[C@]1(C)CCC[C@]2(C)c3ccc(C(C)C)c(NC(=O)Cn4cc(-c5ccccc5OC)nn4)c3CC[C@@H]12 | 50 (≈ 91.8 µM) | 25 (≈ 45.9 µM) | 75 (≈ 138 µM) | 75 (≈ 138 µM) | – | –
COc1c(C(C)C)ccc2c1CC[C@H]1[C@H]3COC(=O)[C@@]3(O)CC[C@]21C | 100 (≈ 290 µM) | 100 (≈ 290 µM) | 100 (≈ 290 µM) | 75 (≈ 218 µM) | – | –
COC(=O)[C@]1(C)CCC[C@]2(C)c3ccc(C(C)C)c(NC(=O)Cn4cc(Cc5ccccc5)nn4)c3CC[C@@H]12 | 50 (≈ 94.6 µM) | 50 (≈ 94.6 µM) | 75 (≈ 142 µM) | 50 (≈ 94.6 µM) | – | –
CCCCCOc1ccc(-c2cn(CC(=O)Nc3c(C(C)C)ccc4c3CC[C@H]3[C@](C)(C(=O)OC)CCC[C@]43C)nn2)cc1 | 75 (≈ 125 µM) | 75 (≈ 125 µM) | 75 (≈ 125 µM) | 100 (≈ 166 µM) | – | –
COC(=O)[C@]1(C)CCC[C@]2(C)c3ccc(C(C)C)c(N)c3CC[C@@H]12 | 50 (≈ 152 µM) | 50 (≈ 152 µM) | 50 (≈ 152 µM) | 25 (≈ 75.9 µM) | – | –
COc1cccc2c1CC[C@H]1[C@@H](CO)[C@H](O[Si](C)(C)C(C)(C)C)CC[C@]21C | 100 (≈ 256 µM) | 75 (≈ 192 µM) | 100 (≈ 256 µM) | 100 (≈ 256 µM) | – | –
COc1c(C(C)C)ccc2c1CC[C@H]1C3=C(CC[C@]21C)C(=O)OC3 | 100 (≈ 306 µM) | 100 (≈ 306 µM) | 100 (≈ 306 µM) | 100 (≈ 306 µM) | – | –
COC(=O)[C@]1(C)CCC[C@]2(C)c3ccc(C(C)C)c(NC(=O)Cn4cc(CBr)nn4)c3CC[C@@H]12 | 50 (≈ 94.1 µM) | 25 (≈ 47 µM) | 75 (≈ 141 µM) | 50 (≈ 94.1 µM) | – | –
C=C1[C@@H]2CCc3c(ccc(C(C)C)c3OC)[C@@]2(C)CC[C@@]1(O)CO | 25 (≈ 75.7 µM) | 25 (≈ 75.7 µM) | 50 (≈ 151 µM) | 50 (≈ 151 µM) | – | –
COC(=O)[C@]1(C)CCC[C@]2(C)c3ccc(C(C)C)c(NC(=O)Cn4cc(-c5nc(Cl)nc(Cl)n5)nn4)c3CC[C@@H]12 | 25 (≈ 42.6 µM) | 12.5 (≈ 21.3 µM) | 6.3 (≈ 10.7 µM) | 12.5 (≈ 21.3 µM) | – | –
COc1c(C(C)C)ccc2c1CC[C@H]1[C@@H](CO)[C@H](O)CC[C@]21C | 100 (≈ 314 µM) | 50 (≈ 157 µM) | 75 (≈ 236 µM) | 75 (≈ 236 µM) | – | –
COC(=O)[C@]1(C)CCC[C@]2(C)c3ccc(C(C)C)c(NC(=O)Cn4cc(COc5ccccc5)nn4)c3CC[C@@H]12 | 12.5 (≈ 22.9 µM) | 75 (≈ 138 µM) | 25 (≈ 45.9 µM) | 50 (≈ 91.8 µM) | – | –
COC(=O)[C@]1(C)CCC[C@]2(C)c3ccc(C(C)C)c(O)c3CC[C@@H]12 | 75 (≈ 227 µM) | 25 (≈ 75.7 µM) | 50 (≈ 151 µM) | 50 (≈ 151 µM) | – | –
COC(=O)[C@]1(C)CCC[C@]2(C)c3ccc(C(C)C)c(NC(=O)Cn4cc(-c5cccc(NC(=O)OC(C)(C)C)c5)nn4)c3CC[C@@H]12 | 12.5 (≈ 19.8 µM) | 25 (≈ 39.7 µM) | 12.5 (≈ 19.8 µM) | 6.3 (≈ 10 µM) | – | –

Continued by falling MIC (Bacillus subtilis), values first:

MIC (Bacillus subtilis) [µg/mL] | MIC (Pseudomonas fluorescens) [µg/mL] | MIC (Escherichia coli) [µg/mL] | MIC (Staphylococcus aureus) [µg/mL] | SMILES | CC50 at 72 h [1] [µg/mL] | CC50 at 72 h [2] [µg/mL]
100 (≈ 292 µM) | 75 (≈ 219 µM) | 75 (≈ 219 µM) | 100 (≈ 292 µM) | C=C1[C@H](O[Si](C)(C)C(C)(C)C)CC[C@]2(C)c3ccccc3CC[C@@H]12 | – | –
100 (≈ 347 µM) | 100 (≈ 347 µM) | 75 (≈ 260 µM) | 100 (≈ 347 µM) | COc1c(C(C)C)ccc2c1CC[C@H]1[C@@H](O)CCC[C@]21C | – | –
100 (≈ 250 µM) | 100 (≈ 250 µM) | 100 (≈ 250 µM) | 100 (≈ 250 µM) | CCOCOC[C@]12CCC3=C(COC3=O)[C@@H]1CCc1c2ccc(C(C)C)c1OC | – | –
75 (≈ 135 µM) | 50 (≈ 90.1 µM) | 25 (≈ 45.1 µM) | 25 (≈ 45.1 µM) | COC(=O)c1nnn(CC(=O)Nc2c(C(C)C)ccc3c2CC[C@H]2[C@](C)(C(=O)OC)CCC[C@]32C)c1C(=O)OC | – | –
75 (≈ 214 µM) | 75 (≈ 214 µM) | 100 (≈ 285 µM) | 75 (≈ 214 µM) | COC(=O)[C@]1(C)CCC[C@@]2(C)[C@H]1CC=C1[C@@H]2CC[C@](O)(C(C)C)[C@H]1O | – | –
50 (≈ 89.3 µM) | 50 (≈ 89.3 µM) | 75 (≈ 134 µM) | 25 (≈ 44.7 µM) | COC(=O)[C@]1(C)CCC[C@]2(C)c3ccc(C(C)C)c(NC(=O)Cn4cc(-c5cccc([N+](=O)[O-])c5)nn4)c3CC[C@@H]12 | – | –
50 (≈ 89.3 µM) | 12.5 (≈ 22.3 µM) | 75 (≈ 134 µM) | 25 (≈ 44.7 µM) | COC(=O)[C@]1(C)CCC[C@]2(C)c3ccc(C(C)C)c(NC(=O)Cn4cc(-c5ccc([N+](=O)[O-])cc5)nn4)c3CC[C@@H]12 | – | –
50 (≈ 93.9 µM) | 12.5 (≈ 23.5 µM) | 25 (≈ 46.9 µM) | 25 (≈ 46.9 µM) | COC(=O)[C@]1(C)CCC[C@]2(C)c3ccc(C(C)C)c(NC(=O)Cn4cc(-c5ccccc5F)nn4)c3CC[C@@H]12 | – | –
50 (≈ 104 µM) | 75 (≈ 155 µM) | 25 (≈ 51.8 µM) | 25 (≈ 51.8 µM) | COC(=O)[C@]1(C)CCC[C@]2(C)c3ccc(C(C)C)c(NC(=O)Cn4cc(CCO)nn4)c3CC[C@@H]12 | – | –
25 (≈ 46.9 µM) | 50 (≈ 93.9 µM) | 50 (≈ 93.9 µM) | 50 (≈ 93.9 µM) | COC(=O)[C@]1(C)CCC[C@]2(C)c3ccc(C(C)C)c(NC(=O)Cn4cc(-c5ccc(F)cc5)nn4)c3CC[C@@H]12 | – | –
12.5 (≈ 24.2 µM) | 6.3 (≈ 12.2 µM) | 3.1 (≈ 6.01 µM) | 3.1 (≈ 6.01 µM) | COC(=O)[C@]1(C)CCC[C@]2(C)c3ccc(C(C)C)c(NC(=O)Cn4cc(-c5cccnc5)nn4)c3CC[C@@H]12 | 48.2 (≈ 93.5 µM) | 47.9 (≈ 92.9 µM)
12.5 (≈ 21.5 µM) | 25 (≈ 42.9 µM) | 12.5 (≈ 21.5 µM) | 25 (≈ 42.9 µM) | COC(=O)[C@]1(C)CCC[C@]2(C)c3ccc(C(C)C)c(NC(=O)Cn4cc(-c5ccc(C(F)(F)F)cc5)nn4)c3CC[C@@H]12 | – | –
6.3 (≈ 11 µM) | 6.3 (≈ 11 µM) | 3.1 (≈ 5.42 µM) | 6.3 (≈ 11 µM) | COC(=O)[C@]1(C)CCC[C@]2(C)c3ccc(C(C)C)c(NC(=O)Cn4cc(-c5cccc(NC(C)=O)c5)nn4)c3CC[C@@H]12 | 12.2 (≈ 21.3 µM) | 9.7 (≈ 17 µM)
6.3 (≈ 18.5 µM) | 3.1 (≈ 9.11 µM) | 3.1 (≈ 9.11 µM) | 3.1 (≈ 9.11 µM) | COc1c(C(C)C)ccc2c1[C@H](O)C=C1C3=C(CCC12C)C(=O)OC3 (single isomer, unassigned) | 9.2 (≈ 27 µM) | 10.3 (≈ 30.3 µM)
6.3 (≈ 11.8 µM) | 12.5 (≈ 23.5 µM) | 25 (≈ 46.9 µM) | 12.5 (≈ 23.5 µM) | COC(=O)[C@]1(C)CCC[C@]2(C)c3ccc(C(C)C)c(NC(=O)Cn4cc(-c5cccc(F)c5)nn4)c3CC[C@@H]12 | – | –
6.3 (≈ 17.5 µM) | 3.1 (≈ 8.6 µM) | 3.1 (≈ 8.6 µM) | 3.1 (≈ 8.6 µM) | CCOCO[C@]12CCC[C@]3(CO1)c1ccc(C(C)C)c(OC)c1CC[C@@H]23 | 8.2 (≈ 22.7 µM) | 5.4 (≈ 15 µM)
3.1 (≈ 6 µM) | 1.6 (≈ 3.1 µM) | 1.6 (≈ 3.1 µM) | 1.6 (≈ 3.1 µM) | COC(=O)[C@]1(C)CCC[C@]2(C)c3ccc(C(C)C)c(NC(=O)Cn4cc(-c5cncnc5)nn4)c3CC[C@@H]12 | 41.8 (≈ 80.9 µM) | 31.7 (≈ 61.4 µM)
0.8 (≈ 2.53 µM) | 1.6 (≈ 5.06 µM) | 1.6 (≈ 5.06 µM) | 1.6 (≈ 5.06 µM) | COc1cccc2c1CC[C@H]1[C@H]3COC(=O)[C@@]3(O)C(=O)C[C@]21C | > 50 | 47.5 (≈ 150 µM)
0.8 (≈ 1.72 µM) | 1.6 (≈ 3.44 µM) | 6.3 (≈ 13.6 µM) | 6.3 (≈ 13.6 µM) | CCOCOC[C@]12CCC(=C(SC)SC)C(=O)[C@@H]1CCc1c2ccc(C(C)C)c1OC | 11.4 (≈ 24.5 µM) | 13.2 (≈ 28.4 µM)
